Target: RORγt (Mus musculus, UniProt P51450, T352K)
Assay: RORγt S2 cell Gal4-luciferase reporter assay
Conditions: for Emax: read-out: Efficacy (%)
[1] = IC50(μM), Drosophila S2 cells, Gal4-RORγt luciferase reporter, 20 hr

Sequence of RORγt (P51450 with tags, fused parts or gaps T352K): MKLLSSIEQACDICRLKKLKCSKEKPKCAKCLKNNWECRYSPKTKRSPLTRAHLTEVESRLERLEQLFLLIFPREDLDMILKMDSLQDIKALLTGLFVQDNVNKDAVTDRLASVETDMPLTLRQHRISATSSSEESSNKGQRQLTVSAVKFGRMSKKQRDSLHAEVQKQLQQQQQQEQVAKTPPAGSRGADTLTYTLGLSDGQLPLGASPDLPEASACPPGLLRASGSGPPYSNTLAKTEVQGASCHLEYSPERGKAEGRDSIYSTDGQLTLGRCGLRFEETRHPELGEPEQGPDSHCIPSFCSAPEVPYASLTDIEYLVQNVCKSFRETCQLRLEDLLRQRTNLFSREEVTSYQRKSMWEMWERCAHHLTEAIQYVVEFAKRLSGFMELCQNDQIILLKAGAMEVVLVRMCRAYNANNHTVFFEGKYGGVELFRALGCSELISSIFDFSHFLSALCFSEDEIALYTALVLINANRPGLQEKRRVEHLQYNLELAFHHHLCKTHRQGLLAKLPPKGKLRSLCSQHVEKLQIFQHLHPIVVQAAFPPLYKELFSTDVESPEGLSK

IC50 [1] [µM]	IC50 (S2 cell RORg IC50 μM, S2 cell reporter assay, listed for comparison) [µM]	Emax [%]	Structure (SMILES)
1 to 10	–	103	COc1cc(O)c(C(CC(=O)N2CC(C)CC(C)C2)c2cccc(Br)c2)c(OC)c1 (stereo not shown) [Compound 85, 3-(3-Bromophenyl)-1-(3,5-dimethylpiperidin-1-yl)-3-(2-hydroxy-4,6-dimethoxyphenyl)propan-1-one]
< 1	–	96.6	COc1cc(O)c(C(CC(=O)N2CC(C)CC(C)C2)c2cccc(C#N)c2)c(OC)c1 (stereo not shown) [Compound 87, 3-(3-(3,5-Dimethylpiperidin-1-yl)-1-(2-hydroxy-4,6-dimethoxyphenyl)-3-oxopropyl)benzonitrile]
1 to 10	–	97.2	COc1cc(O)c(C(CC(=O)N2CC(C)CC(C)C2)c2ccc(Cl)c(Cl)c2)c(OC)c1 (stereo not shown) [Compound 88, 3-(3,4-Dichlorophenyl)-1-(3,5-dimethylpiperidin-1-yl)-3-(2-hydroxy-4,6-dimethoxyphenyl)propan-1-one]
1 to 10	–	90.5	COc1cc(O)c(C(CC(=O)N2CC(C)CC(C)C2)c2cccc(OC(C)C)c2)c(OC)c1 (stereo not shown) [Compound 94, 1-(3,5-Dimethylpiperidin-1-yl)-3-(2-hydroxy-4,6-dimethoxyphenyl)-3-(3-isopropoxyphenyl)propan-1-one]
11 to 50	–	61.5	COc1cc(O)c(C(CC(=O)N2CC(C)CC(C)C2)c2cc(Cl)cc(Cl)c2)c(OC)c1 (stereo not shown) [Compound 97]
1 to 10	–	92.6	COc1cc(O)c(C(CC(=O)N2CC(C)CC(C)C2)c2ccc(C(=O)O)cc2)c(OC)c1 (stereo not shown) [Compound 99]

More lines, now with the values behind:

Structure (SMILES)	IC50 [1] [µM]	IC50 (S2 cell RORg IC50 μM, S2 cell reporter assay, listed for comparison) [µM]	Emax [%]
COc1cc(O)c(C(CC(=O)N2CCCC(C)C2)c2ccc(-c3ccccc3)cc2)c(OC)c1 (stereo not shown) [Compound 67]	11 to 50	11 to 20	72
CC1CCCN(C(=O)CC(c2ccc3c(c2)OCO3)c2ccc3ccccc3c2O)C1 (stereo not shown) [Compound 68]	> 50	–	–
COc1cc(O)c(CCC(=O)N2CCCC(C)C2)c(OC)c1 (stereo not shown) [Compound 71]	> 50	–	–
COc1cc(O)c(C(CC(=O)N2CC(C)CC(C)C2)c2ccc3c(c2)OCCCO3)c(OC)c1 (stereo not shown) [Compound 80]	< 1	–	94
COc1cc(O)c(C(CC(=O)N2CC(C)CC(C)C2)c2ccc(S(=O)(=O)N(C)C)cc2)c(OC)c1 (stereo not shown) [Compound 84, 4-(3-(3,5-Dimethylpiperidin-1-yl)-1-(2-hydroxy-4,6-dimethoxyphenyl)-3-oxopropyl)-N,N-dimethylbenzenesulfonamide]	11 to 50	–	–
COc1cc(O)c(C(CC(=O)N2CC(C)CC(C)C2)c2ccc(C(C)(C)C)cc2)c(OC)c1 (stereo not shown) [Compound 89, 3-(4-tert-Butylphenyl)-1-(3,5-dimethylpiperidin-1-yl)-3-(2-hydroxy-4,6-dimethoxyphenyl)propan-1-one]	1 to 10	–	95.4
COc1cc(O)c(C(CC(=O)N2CC(C)CC(C)C2)c2ccc(CN3CCOCC3)cc2)c(OC)c1 (stereo not shown) [Compound 90]	1 to 10	–	99.1
COc1cc(O)c(C(CC(=O)N2CC(C)CC(C)C2)c2cccc(OCc3ccccc3)c2)c(OC)c1 (stereo not shown) [Compound 91]	1 to 10	–	92.6
COc1cc(O)c(C(CC(=O)N2CC(C)CC(C)C2)c2ccc(OCc3ccccc3)cc2)c(OC)c1 (stereo not shown) [Compound 92]	1 to 10	–	94.6
COc1cc(O)c(C(CC(=O)N2CC(C)CC(C)C2)c2cccc(OC(F)(F)F)c2)c(OC)c1 (stereo not shown) [Compound 93, 1-(3,5-Dimethylpiperidin-1-yl)-3-(2-hydroxy-4,6-dimethoxyphenyl)-3-(3-(trifluoromethoxy)phenyl)propan-1-one]	1 to 10	–	93.3
COc1cc(O)c(C(CC(=O)N2CC(C)CC(C)C2)c2ccc(C(=O)NC3CC3)cc2)c(OC)c1 (stereo not shown) [Compound 95]	1 to 10	–	93.1
COc1cc(O)c(C(CC(=O)N2CC(C)CC(C)C2)c2ccc(OC(F)(F)F)cc2)c(OC)c1 (stereo not shown) [Compound 96, 1-(3,5-Dimethylpiperidin-1-yl)-3-(2-hydroxy-4,6-dimethoxyphenyl)-3-(4-(trifluoromethoxy)phenyl)propan-1-one]	1 to 10	–	94.8
